Test results as given in patent publication US5602167A, “4-arylcyclohepta[c] pyrrole analgesics” (Ortho Pharmaceutical Corporation, priority 1995, dated 1997).

experiment: Mouse Acetylcholine Bromide-Induced Abdominal Constriction Assay; format: in vivo; conditions: 30 mg/kg po, 30 min before 5.5 mg/kg i.p. acetylcholine bromide, % analgesia

Structure (SMILES)	% Inhibition at 30 mg/kg (route) [%]
CN1C[C@H]2CCCC[C@](O)(c3ccccc3)[C@H]2C1 (relative stereo) [Cp-1]	93
COc1cccc([C@@]2(O)CCCC[C@@H]3CN(C)C[C@@H]32)c1 (relative stereo) [Cp-2]	80
CN1C[C@H]2CCCC[C@](O)(c3ccc(F)cc3)[C@H]2C1 (relative stereo) [Cp-3]	100
CN1C[C@H]2CCCC[C@H](c3ccccc3)[C@H]2C1 (relative stereo) [Cp-4]	80
CN1C[C@H]2CCCC[C@@H](c3ccccc3)[C@H]2C1 (relative stereo) [Cp-5]	100
CN1C[C@H]2CCCC[C@H](c3ccc(F)cc3)[C@H]2C1 (relative stereo) [Cp-6]	93
CN1C[C@H]2CCCC[C@@H](c3ccc(F)cc3)[C@H]2C1 (relative stereo) [Cp-7]	100

same assay, conditions: 30 mg/kg sc, 5.5 mg/kg i.p. acetylcholine bromide, % analgesia

Structure (SMILES)	% Inhibition at 30 mg/kg (route) [%]
COc1cccc([C@H]2CCCC[C@@H]3CN(C)C[C@@H]32)c1 (relative stereo) [Cp-8]	100
COc1cccc([C@@H]2CCCC[C@@H]3CN(C)C[C@@H]32)c1 (relative stereo) [Cp-9]	90
